Measurements as given in US10752604B2, “C-glucoside derivative containing fused phenyl ring or pharmaceutically acceptable salt thereof, process for preparing same, and pharmaceutical composition comprising same” (Je II Pharmaceutical Co., Ltd., priority 2016, dated 2020).

How the values were obtained:
[1] = molecular target: human SGLT1 (Homo sapiens (Human), UniProt P13866); assay: Inhibitory effect on human SGLT1 activity (14C-AMG uptake in CHO cells expressing hSGLT1); assay type: cell-based; settings: 14C-AMG transport, CHO cells expressing hSGLT1, 2 hours
Chain of human SGLT1 (P13866 whole entry): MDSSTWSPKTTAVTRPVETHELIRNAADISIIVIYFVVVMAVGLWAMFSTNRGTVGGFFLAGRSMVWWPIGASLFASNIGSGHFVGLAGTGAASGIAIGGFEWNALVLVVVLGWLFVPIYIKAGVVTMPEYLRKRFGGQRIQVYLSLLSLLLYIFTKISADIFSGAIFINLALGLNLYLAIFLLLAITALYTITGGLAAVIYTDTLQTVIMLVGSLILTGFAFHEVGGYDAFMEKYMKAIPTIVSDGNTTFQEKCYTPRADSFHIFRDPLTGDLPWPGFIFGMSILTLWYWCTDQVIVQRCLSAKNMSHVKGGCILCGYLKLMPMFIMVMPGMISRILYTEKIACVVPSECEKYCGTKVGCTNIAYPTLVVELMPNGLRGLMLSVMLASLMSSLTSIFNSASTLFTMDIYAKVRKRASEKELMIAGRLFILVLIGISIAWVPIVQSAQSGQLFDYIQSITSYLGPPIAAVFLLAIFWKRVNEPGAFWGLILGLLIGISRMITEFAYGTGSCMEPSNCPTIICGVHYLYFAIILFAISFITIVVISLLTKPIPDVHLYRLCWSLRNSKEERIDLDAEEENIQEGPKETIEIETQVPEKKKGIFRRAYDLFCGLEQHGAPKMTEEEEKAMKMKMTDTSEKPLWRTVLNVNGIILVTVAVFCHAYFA
Text: (§1) Human SGLT1 (hSGLT1), human SGLT2 (hSGLT2) genes were amplified from a human marathon-ready cDNA library (Clontech)) by means of an PCR method, after which resulting amplified sequences were combined with a pcDNA 3.1(+) vector, which was a mammalian expression vector, so as to prepare recombinant expression vectors pcDNA3.1(+)/hSGLT1, pcDNA3.1(+)/hSGLT2. Resulting recombinant expression vectors were transformed into Chinese Hamster Ovarian cells, after which stably transformed clones were selected by means of a colony picking method by using a resistance to G418, a selective marker included in the vector. Out of selected clones, clones for expressing hSGLT1 and hSGLT2 were selected based on activity in analysis of ^14C-α-methyl-D-glucopyranoside (^14C-AMG) transport.
To analyze a sodium-dependent glucose transport, cells for expressing hSGLT1 and hSGLT2 were seeded at 1×10^5 cells per well into a 96-well culture plate, after which resulting cells were cultured in an RPMI 1640 medium containing 10% fetal bovine serum (FBS). In 1 day after culture, the resulting cells were cultured in a pre-treatment buffer solution (10 mM HEPES, 5 mM tris, 140 mM choline chloride, 2 mM KCl, 1 mM CaCl2 and 1 mM MgCl2, pH 7.4) under 37° C./5% CO2 conditions for 10 minutes. Then, the resulting cells were cultured in a uptake buffer solution (10 mM HEPES, 5 mM tris, 140 mM NaCl, 2 mM KCl, 1 mM CaCl2, 1 mM MgCl2 and 1 mM AMGS pH 7.4) containing 14C-AMG (8 μM) and a compound of the present disclosure or a dimethyl sulfoxide (DMSO) vehicle under 37° C./5% CO2 conditions for 2 hours. After culture, the cells were washed twice with a washing buffer solution (a pre-treatment buffer solution containing 10 mM AMG at room temperature), after which a radiation thereof was measured by using a liquid scintillation counter. IC50 of each compound was measured according to a non-linear regression analysis by using SigmaPlot (Document Analytical Biochemistry 429: 70-75, Molecular and Cellular Biochemistry 280: 91-98, 2005). SGLT1/2 in-vitro assay results are shown in a following Table 1.

[2] = molecular target: human SGLT2 (Homo sapiens (Human), UniProt P31639); assay: Inhibitory effect on human SGLT2 activity (14C-AMG uptake in CHO cells expressing hSGLT2); assay type: cell-based; settings: 14C-AMG transport, CHO cells expressing hSGLT2, 2 hours
Chain of human SGLT2 (P31639 whole entry): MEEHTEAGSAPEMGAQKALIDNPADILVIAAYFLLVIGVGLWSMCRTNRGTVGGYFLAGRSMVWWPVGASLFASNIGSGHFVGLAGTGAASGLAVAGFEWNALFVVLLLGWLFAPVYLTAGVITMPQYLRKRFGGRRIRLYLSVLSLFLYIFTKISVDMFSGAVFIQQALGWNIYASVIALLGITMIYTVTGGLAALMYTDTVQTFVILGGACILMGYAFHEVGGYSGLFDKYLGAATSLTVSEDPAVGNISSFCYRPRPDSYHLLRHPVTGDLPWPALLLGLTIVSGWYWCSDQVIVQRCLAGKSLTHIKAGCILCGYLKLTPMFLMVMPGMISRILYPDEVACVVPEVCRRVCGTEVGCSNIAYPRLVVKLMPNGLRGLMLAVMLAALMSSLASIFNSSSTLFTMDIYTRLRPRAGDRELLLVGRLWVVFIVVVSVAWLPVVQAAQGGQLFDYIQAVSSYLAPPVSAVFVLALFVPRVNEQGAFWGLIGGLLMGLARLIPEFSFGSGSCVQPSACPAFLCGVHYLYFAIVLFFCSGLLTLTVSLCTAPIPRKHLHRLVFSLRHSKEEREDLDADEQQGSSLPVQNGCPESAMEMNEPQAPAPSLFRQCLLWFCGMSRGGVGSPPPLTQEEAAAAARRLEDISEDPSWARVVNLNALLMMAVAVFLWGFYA
Text: as §1
In 1 day after culture, the resulting cells were cultured in a pre-treatment buffer solution (10 mM HEPES, 5 mM tris, 140 mM choline chloride, 2 mM KCl, 1 mM CaCl2 and 1 mM MgCl2, pH 7.4) under 37° C./5% CO2 conditions for 10 minutes. Then, the resulting cells were cultured in a uptake buffer solution (10 mM HEPES, 5 mM tris, 140 mM NaCl, 2 mM KCl, 1 mM CaCl2, 1 mM MgCl2 and 1 mM AMGS pH 7.4) containing 14C-AMG (8 μM) and a compound of the present disclosure or a dimethyl sulfoxide (DMSO) vehicle under 37° C./5% CO2 conditions for 2 hours. After culture, the cells were washed twice with a washing buffer solution (a pre-treatment buffer solution containing 10 mM AMG at room temperature), after which a radiation thereof was measured by using a liquid scintillation counter.

| Compound | IC50 [1] [nM] | IC50 [2] [nM] |
| --- | --- | --- |
| Cc1c([C@@H]2O[C@H](CO)C(O)[C@H](O)C2O)cc(Cc2ccc(OC(C)C)cc2)c2c1CCC2 (stereo in doubt) [Example 3, (2R,3S,4R,5R,6S)-2-(hydroxymethyl)-6-(7-(4-isopropoxybenzyl)-4-methyl-2,3-dihydro-1H-indene-5-yl)tetrahydro-2H-pyran-3,4,5-triol] | 142 | – |
| CCc1ccc(Cc2cc([C@@H]3O[C@H](CO)C(O)[C@H](O)C3O)c(C)c3c2CCC3)cc1 (stereo in doubt) [Example 5, (2S,3R,4R,5S,6R)-2-(7-(4-ethylbenzyl)-4-methyl-2,3-dihydro-1H-indene-5-yl)-6-(hydroxymethyl)tetrahydro-2H-pyran-3,4,5-triol] | 40 | 2.8 |
| CCCc1ccc(Cc2cc([C@@H]3O[C@H](CO)C(O)[C@H](O)C3O)c(C)c3c2CCC3)cc1 (stereo in doubt) [Example 6, (2R,3S,4R,5R,6S)-2-(hydroxymethyl)-6-(4-methyl-7-(4-propylbenzyl)-2,3-dihydro-1H-indene-5-yl)tetrahydro-2H-pyran-3,4,5-triol] | 190 | – |
| Cc1c(C2O[C@H](CO)C(O)[C@H](O)C2O)cc(Cc2ccc(C(C)C)cc2)c2c1CCC2 (stereo in doubt) [Example 7, (2R,3S,4R,5R,6S)-2-(hydroxymethyl)-6-(7-(4-isopropylbenzyl)-4-methyl-2,3-dihydro-1H-indene-5-yl)tetrahydro-2H-pyran-3,4,5-triol] | 296 | – |
| Cc1ccc([C@@H]2O[C@H](CO)[C@@H](O)[C@H](O)[C@H]2O)cc1Cc1ccc(-c2ccc(F)cc2)s1 [Canagliflozin, reference compound] | 550 | 4.9 |
| COc1ccc(Cc2cc([C@@H]3O[C@H](CO)[C@@H](O)[C@H](O)[C@H]3O)c(C)c3c2CCC3)cc1 [Example 1, (2R,3S,4R,5R,6S)-2-(hydroxymethyl)-6-(7-(4-methoxybenzyl)-4-methyl-2,3-dihydro-1H-indene-5-yl)tetrahydro-2H-pyran-3,4,5-triol] | 9.1 | 1.3 |
| CCOc1ccc(Cc2cc([C@@H]3O[C@H](CO)[C@@H](O)[C@H](O)[C@H]3O)c(C)c3c2CCC3)cc1 [Example 2, (2S,3R,4R,5S,6R)-2-(7-(4-ethoxybenzyl)-4-methyl-2,3-dihydro-1H-indene-5-yl)-6-(hydroxymethyl)tetrahydro-2H-pyran-3,4,5-triol] | 76 | 3 |
| CSc1ccc(Cc2cc([C@@H]3O[C@H](CO)[C@@H](O)[C@H](O)[C@H]3O)c(C)c3c2CCC3)cc1 [Example 13] | 15 | 1.2 |
| Cc1c([C@@H]2O[C@H](CO)[C@@H](O)[C@H](O)[C@H]2O)cc(Cc2ccc(Cl)cc2)c2c1CCC2 [Example 16, (2S,3R,4R,5S,6R)-2-(7-(4-chlorobenzyl)-4-methyl-2,3-dihydro-1H-indene-5-yl)-6-(hydroxymethyl)tetrahydro-2H-pyran-3,4,5-triol] | 14.3 | – |
| C=Cc1ccc(Cc2cc([C@@H]3O[C@H](CO)[C@@H](O)[C@H](O)[C@H]3O)c(C)c3c2OCC3)cc1 [Example 34, (2R,3S,4R,5R,6S)-2-(hydroxymethyl)-6-(4-methyl-7-(4-vinylbenzyl)-2,3-dihydrobenzofuran-5-yl)tetrahydro-2H-pyran-3,4,5-triol] | 295 | – |
| CCc1c([C@@H]2O[C@H](CO)[C@@H](O)[C@H](O)[C@H]2O)cc(Cc2ccc(C)cc2)c2c1CCC2 [Example 41, (2S,3R,4R,5S,6R)-2-(4-ethyl-7-(4-methylbenzyl)-2,3-dihydro-1H-indene-5-yl)-6-(hydroxymethyl)tetrahydro-2H-pyran-3,4,5-triol] | 41.8 | 3.68 |
| CCc1c([C@@H]2O[C@H](CO)[C@@H](O)[C@H](O)[C@H]2O)cc(Cc2ccc(OC)cc2)c2c1CCC2 [Example 42, (2S,3R,4R,5S,6R)-2-(4-ethyl-7-(4-methoxybenzyl)-2,3-dihydro-1H-indene-5-yl)-6-(hydroxymethyl)tetrahydro-2H-pyran-3,4,5-triol] | 60.5 | 2.73 |
| CCCc1c([C@@H]2O[C@H](CO)[C@@H](O)[C@H](O)[C@H]2O)cc(Cc2ccc(OC)cc2)c2c1CCC2 [Example 52, (2R,3S,4R,5R,6S)-2-(hydroxymethyl)-6-(7-(4-methoxybenzyl)-4-propyl-2,3-dihydro-1H-indene-5-yl)tetrahydro-2H-pyran-3,4,5-triol] | 236 | 9.04 |
| CCCc1c([C@@H]2O[C@H](CO)[C@@H](O)[C@H](O)[C@H]2O)cc(Cc2ccc(C)cc2)c2c1CCC2 [Example 53, (2R,3S,4R,5R,6S)-2-(hydroxymethyl)-6-(7-(4-methylbenzyl)-4-propyl-2,3-dihydro-1H-indene-5-yl)tetrahydro-2H-pyran-3,4,5-triol] | 94.7 | 1.83 |
| CCCCc1c([C@@H]2O[C@H](CO)[C@@H](O)[C@H](O)[C@H]2O)cc(Cc2ccc(OC)cc2)c2c1CCC2 [Example 57, (2S,3R,4R,5S,6R)-2-(4-butyl-7-(4-methoxybenzyl)-2,3-dihydro-1H-indene-5-yl)-6-(hydroxymethyl)tetrahydro-2H-pyran-3,4,5-triol] | 373 | 5.86 |
| CCCCc1c([C@@H]2O[C@H](CO)[C@@H](O)[C@H](O)[C@H]2O)cc(Cc2ccc(C)cc2)c2c1CCC2 [Example 58, (2S,3R,4R,5S,6R)-2-(4-butyl-7-(4-methylbenzyl)-2,3-dihydro-1H-indene-5-yl)-6-(hydroxymethyl)tetrahydro-2H-pyran-3,4,5-triol] | 289 | 12.1 |
| COc1ccc(Cc2cc([C@@H]3O[C@H](CO)[C@@H](O)[C@H](O)[C@H]3O)c(C(C)C)c3c2CCC3)cc1 [Example 61, (2R,3S,4R,5R,6S)-2-(hydroxymethyl)-6-(4-isopropyl-7-(4-methoxybenzyl)-2,3-dihydro-1H-indene-5-yl)tetrahydro-2H-pyran-3,4,5-triol] | 199 | 2.04 |
| Cc1ccc(Cc2cc([C@@H]3O[C@H](CO)[C@@H](O)[C@H](O)[C@H]3O)c(CC(C)C)c3c2CCC3)cc1 [Example 64, (2R,3S,4R,5R,6S)-2-(hydroxymethyl)-6-(4-isobutyl-7-(4-methylbenzyl)-2,3-dihydro-1H-indene-5-yl)tetrahydro-2H-pyran-3,4,5-triol] | 518 | 19.1 |
| CCc1ccc(Cc2cc([C@@H]3O[C@H](CO)[C@@H](O)[C@H](O)[C@H]3O)c(CC(C)C)c3c2CCC3)cc1 [Example 65, (2S,3R,4R,5S,6R)-2-(7-(4-ethylbenzyl)-4-isobutyl-2,3-dihydro-1H-indene-5-yl)-6-(hydroxymethyl)tetrahydro-2H-pyran-3,4,5-triol] | 1610 | 38 |
